Test results: patent US8431603B2, “3-phenylpyrazolo[5,1-b]thiazole compounds” (Eisai R&D Management Co., Ltd., priority 2008, dated 2013)
One block for each compound: values may come before it.

Key:
rats [1] = settings: cited from earlier work
[2] = pretreatment; cited from earlier work
rats [3] = settings: cited from earlier work; remark: listed apart in the source
rats [4] = settings: cited from earlier work; remark: listed apart in the source
[5] = in vivo; cited from earlier work
[6] = in vivo; cited from earlier work; remark: listed apart in the source
[7] = in vivo; cited from earlier work; remark: listed apart in the source
human CRFR1 = molecular target: T1, human CRFR1 (Homo sapiens, UniProt P34998); assay: CRFR1 binding test (SPA competition with 125I-CRF, membrane fraction of CRFR1-expressing HEK293 cells); settings: 100 pM 125I-CRF, room temperature, read-out: CRF1 receptor binding capacity IC50
T1 construct: The full-length CRFR1 gene was obtained by PCR using human brain cDNA library; expressed in transfected cells; pcDNA3.1 expression vector; membrane fraction used
T1 sequence (P34998 24-415): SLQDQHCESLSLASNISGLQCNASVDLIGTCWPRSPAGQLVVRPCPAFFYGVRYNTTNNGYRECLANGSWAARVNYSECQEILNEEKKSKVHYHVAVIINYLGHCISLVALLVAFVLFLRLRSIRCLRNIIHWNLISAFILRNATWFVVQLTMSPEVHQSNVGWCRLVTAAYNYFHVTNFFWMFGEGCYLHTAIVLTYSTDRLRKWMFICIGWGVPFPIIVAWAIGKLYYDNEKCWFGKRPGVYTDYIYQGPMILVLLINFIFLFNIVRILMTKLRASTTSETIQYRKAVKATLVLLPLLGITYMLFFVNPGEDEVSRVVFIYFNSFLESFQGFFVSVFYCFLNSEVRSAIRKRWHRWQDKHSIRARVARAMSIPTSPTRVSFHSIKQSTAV
Method: The binding capacities of the compounds of the invention for CRF1 receptor (CRFR1) were evaluated.
The membrane fraction of human CRFR1 high-expressing cells was used as the material for a CRFR1 binding experiment. The CRFR1-expressing cells were prepared in the following manner. The full-length CRFR1 gene was obtained by PCR using human brain cDNA library (QuickClone™ Clontech). The obtained DNA fragment was inserted into a cloning vector and the nucleotide sequence was confirmed. cDNA having the proper nucleotide sequence was linked to an expression vector (pcDNA3.1™, Invitrogen). The CRFR1 expression vector was introduced into HEK293 cell, and the resistant cells which proliferated in culture medium containing G418 (1 mg/ml) were cloned by the limiting dilution method. Out of the cloned cells, cells having high binding affinity between the membrane fraction per unit of protein and sauvagine were selected according to the following binding experiment. And the selected cells were used for the experiments.
The cloned cells obtained in (1) were collected and suspended in ice-cooled membrane buffer (50 mM Tris-HCl, 5 mM MgCl2, 2 mM EGTA, 1 mM DTT, protease inhibitor cocktail (COMPLETE™, Roche Diagnostics) pH 7.3), and then the cells were disrupted with a Polytron ([…]) while cooling on ice (level 5, 10 seconds, 2-5 times, ice-cooling) and then centrifuged (2,000 rpm, 5 minutes, 4° C.), after which the supernatant was collected. Membrane buffer was added to the precipitate, and the mixture was subjected to Polytron treatment (same conditions as above) and centrifuged (same conditions as above), and the obtained supernatant was collected and combined with the previous supernatant. This was centrifuged (13,000 rpm (18,000×g), 30 minutes, 4° C.) to prepare cell membranes. The precipitated cell membranes were suspended in membrane buffer and disrupted with a Polytron (level 5, 10 seconds, 3-5 times, ice-cooling) to prepare a dispersed suspension. The protein assay was performed.
The following method (1) or (2) was performed for use as the cell membrane fraction.
(1) The above dispersed suspension was diluted with membrane buffer containing 0.1% BSA to a protein concentration of 200 μg/ml, for use as the cell membrane fraction
(2) The above dispersed suspension was frozen for preservation, and if needed, thawed, re-dispersed and diluted for used as the cell membrane fraction.
A binding competition experiment with CRF was conducted by the SPA (GE Healthcare) method using a 96-well plate. A mixture of 5 μg of the cell membrane fraction protein, 1 mg of SPA beads and 100 pM ^125I-CRF (Perkin Elmer) was allowed to stand at room temperature for at least 2 hours in the presence of a test compound, and the radioactivity of each well after centrifugation (1,200 rpm (260×g), 5 minutes, room temperature) was measured with a TopCount (registered trademark; Perkin Elmer).
The radioactivity with addition of a 4,000-fold excess of non-radioactive sauvagine as the nonspecific binding was subtracted from each value, and the resulting value was expressed as a percentage (% of control), with 100% as the radioactivity without addition of the test compound (control). The IC50 value was calculated from a binding inhibition curve drawn with test compound concentration on the horizontal axis and % (% of control) on the vertical axis.

Balb/c mice = assay: Light/dark box test in mice (anxiolytic effect); type: in vivo; settings: for anxiolytic effect in the light/dark box test: 30 mg/kg, oral administration; for minimal effective dose: Mus musculus, 1 h, minimum dose significantly prolonging time spent in the light box vs vehicle, oral, one hour prior to test
Method: The light/dark box test in mice was carried out according to a modified method of Belzung C., Misslin R., Vogel E. et al. (Reference; Behavioural effects of the benzodiazepine receptor partial agonist RO16-6028 in mice, Psychopharmacology, 97, 388-391, 1989). The test apparatus used was a light/dark box comprising a covered black acrylic box (dark box; 15×10×20 cm), an uncovered white acrylic box (light box; 15×20×20 cm) and a black acrylic tunnel (10×7×4.5 cm) which connects dark box and light box and enables a mouse to freely move back and forth between the dark box and light box. In this test apparatus, however, a transparent acrylic polymer was used for the front side (20×20 cm) and back side (20×20 cm) of the light box to allow observation of the behavior. After setting illumination so that the light intensity of the floor of the light box was 150 Lux, 5-week-old male Balb/c mice (purchased from Nihon Charles River) were introduced into the dark box at the beginning of the test. For the test, the tested compound was suspended in 5% dimethylsulfoxide, 5% Cremopor EL and 90% physiological saline and orally administered to the test animals one hour prior to the start of the test.
The time spent in the light box was measured as an index of the anxiolytic effect, with “spend in the light box” defined as the state in which all limbs of the mice were on the floor of the light box. […] The statistical significance between the vehicle-treated group and the test compound-treated groups was analyzed by one way analysis of variance followed by Dunnett multiple comparison when multiple doses were set for the same test, and by the Mann-Whitney U test when only one dose was set.

[8] = in vivo; cited from earlier work; remark: listed apart in the source
rats [9] = settings: cited from earlier work; remark: listed apart in the source
high-anxiety rats = settings: particularly in high-anxiety rats; cited from earlier work
[10] = in vivo; cited from earlier work; remark: listed apart in the source
IBS patients = settings: cited from earlier work
ethanol withdrawal rats = settings: cited from earlier work
[11] = in vivo; cited from earlier work; remark: listed apart in the source

Compound: CCCCN(CC)c1nc(C)nc2c1c(C)cn2-c1c(C)cc(C)cc1C [CP-154526]
anti-depressant and anti-anxiety actions (rats [1]): exhibits anti-depressant and anti-anxiety actions | naltrexone-induced morphine withdrawal symptoms [2]: inhibits | recurrence of stress-elicited drug (heroin, cocaine)-seeking behavior (rats [3]): inhibits | recurrence of stress-elicited alcohol-seeking behavior (rats [4]): inhibits | gastric emptying retardation following surgery [5]: ameliorates | learning disturbance following acute stress [6]: inhibits

Compound: CCN(c1nc(C)cc(N2CC=C(c3cccc(F)c3)CC2)n1)c1ccc(C(C)C)cc1SC [CRA1000]
stress-related reduction in food intake [7]: inhibit

IC50 (human CRFR1): 65 nM
Compound: CCOCc1cc(OC)c(-c2csc3c(N(CCC4CC4)C4CCOCC4)c(OC)nn23)c(OC)c1 [Example 3, N-(2-Cyclopropylethyl)-3-[4-(ethoxymethyl)-2,6-dimethoxyphenyl]-6-methoxy-N-(tetrahydro-2H-pyran-4-yl)pyrazolo[5,1-b][1,3]thiazole-7-amine]
anxiolytic effect in the light/dark box test (Balb/c mice): statistically significant effects | minimal effective dose (Balb/c mice): 30 mg/kg

IC50 (human CRFR1): 34 nM
Compound: CCOCc1cc(OC)c(-c2csc3c(N(CC4CCC4)C4CCOCC4)c(OC)nn23)c(OC)c1 [Example 4, N-(Cyclobutylmethyl)-3-[4-(ethoxymethyl)-2,6-dimethoxyphenyl]-6-methoxy-N-(tetrahydro-2H-pyran-4-yl)pyrazolo[5,1-b][1,3]thiazole-7-amine]
anxiolytic effect in the light/dark box test (Balb/c mice): statistically significant effects | minimal effective dose (Balb/c mice): 30 mg/kg

IC50 (human CRFR1): 29 nM
Compound: CCOCc1cc(OC)c(-c2csc3c(N(CC4CC4)C4CCCOC4)c(OC)nn23)c(OC)c1 (stereo not drawn) [Example 5, N-(Cyclopropylmethyl)-3-[4-(ethoxymethyl)-2,6-dimethoxyphenyl]-6-methoxy-N-(tetrahydro-2H-pyran-3-yl)pyrazolo[5,1-b][1,3]thiazole-7-amine]
anxiolytic effect in the light/dark box test (Balb/c mice): statistically significant effects | minimal effective dose (Balb/c mice): 30 mg/kg

IC50 (human CRFR1): 39 nM
Compound: CCCN(c1c(OC)nn2c(-c3c(OC)cc(COCC)cc3OC)csc12)C1CCCOC1 (stereo not drawn) [Example 6, 3-[4-(Ethoxymethyl)-2,6-dimethoxyphenyl]-6-methoxy-N-propyl-N-(tetrahydro-2H-pyran-3-yl)pyrazolo[5,1-b][1,3]thiazole-7-amine]

IC50 (human CRFR1): 46 nM
Compound: COCc1cc(OC)c(-c2csc3c(N(CC4CCC4)C4CCOCC4)c(OC)nn23)c(OC)c1 [Example 7, N-(Cyclobutylmethyl)-3-[2,6-dimethoxy-4-(methoxymethyl)phenyl]-6-methoxy-N-(tetrahydro-2H-pyran-4-yl)pyrazolo[5,1-b][1,3]thiazole-7-amine]

IC50 (human CRFR1): 63 nM
Compound: CCCCCN(c1c(OC)nn2c(-c3c(OC)cc(COC)cc3OC)csc12)C1CCOCC1 [Example 8, 3-[2,6-Dimethoxy-4-(methoxymethyl)phenyl]-6-methoxy-N-pentyl-N-(tetrahydro-2H-pyran-4-yl)pyrazolo[5,1-b][1,3]thiazole-7-amine]

IC50 (human CRFR1): 37 nM
Compound: COCc1cc(OC)c(-c2csc3c(N(CC4CC4)C4CCCOC4)c(OC)nn23)c(OC)c1 (stereo not drawn) [Example 11, N-(Cyclopropylmethyl)-3-[2,6-dimethoxy-4-(methoxymethyl)phenyl]-6-methoxy-N-(tetrahydro-2H-pyran-3-yl)pyrazolo[5,1-b][1,3]thiazole-7-amine]

IC50 (human CRFR1): 82 nM
Compound: COCc1cc(OC)c(-c2csc3c(N(CC4CC4C)C4CCOCC4)c(OC)nn23)c(OC)c1 (stereo not drawn) [Example 12, 3-[2,6-Dimethoxy-4-(methoxymethyl)phenyl]-6-methoxy-N-[(2-methylcyclopropyl)methyl]-N-(tetrahydro-2H-pyran-4-yl)pyrazolo[5,1-b][1,3]thiazole-7-amine]

IC50 (human CRFR1): 90 nM
Compound: COc1cc(C#N)cc(OC)c1-c1csc2c(N(CC3CC3)CC3CCOC3)c(OC)nn12 (stereo not drawn) [Example 14, 4-{7-[(Cyclopropylmethyl)(tetrahydrofuran-3-ylmethyl)amino]-6-methoxypyrazolo[5,1-b][1,3]thiazol-3-yl}-3,5-diimethoxybenzonitrile]
anxiolytic effect in the light/dark box test (Balb/c mice): statistically significant effects | minimal effective dose (Balb/c mice): 30 mg/kg

IC50 (human CRFR1): 70 nM
Compound: COc1cc(C#N)cc(OC)c1-c1csc2c(N(CC3CCOCC3)CC3CC3)c(OC)nn12 [Example 15, 4-{7-[(Cyclopropylmethyl)(tetrahydro-2H-pyran-4-ylmethyl)amino]-6-methoxypyrazolo[5,1-b][1,3]thiazol-3-yl}-3,5-dimethoxybenzonitrile]

IC50 (human CRFR1): 29 nM
Compound: COc1cc(OC)c(-c2csc3c(N(CC4CCOCC4)CC4CC4)c(OC)nn23)c(OC)c1 [Example 16, N-(Cyclopropylmethyl)-6-methoxy-N-(tetrahydro-2H-pyran-4-ylmethyl)-3-(2,4,6-trimethoxyphenyl)-pyrazolo[5,1-b][1,3]thiazole-7-amine]

IC50 (human CRFR1): 36 nM
Compound: CCCN(c1c(OC)nn2c(-c3c(OC)cc(COC4CCC4)cc3OC)csc12)C1CCOCC1 [Example 17, 3-{4-[(Cyclobutyloxy)methyl]-2,6-dimethoxyphenyl}-6-methoxy-N-propyl-N-(tetrahydro-2H-pyran-4-yl)pyrazolo[5,1-b][1,3]thiazole-7-amine]

Compound: CCCN(CCC)c1cc(C)nc2c(-c3cnc(N(C)C)cc3C)c(C)nn12 [Example R121919]
ameliorating depression, depressive symptoms, anxiety [8]: effective | anti-anxiety action (rats [9]): exhibits an anti-anxiety action | stress-related sleep disorder (high-anxiety rats): inhibits

Compound: α-helical CRF(9-41)
ischemic and excitotoxic encephalopathy [10]: inhibits | stress-related reduction in food intake [7]: inhibit | abdominal pain and anxiety (IBS patients): reduces | colon intestinal hyperkinesis (IBS patients): inhibits | anxiety behavior (ethanol withdrawal rats): inhibits | stress-related increase in intracerebral amyloid-β [11]: suppresses
